# From US20040009904A1, “APL immunoreactive peptides, conjugates thereof and methods of treatment for aPL antibody-mediated pathologies” (priority 1995, published 2004)
# Several values for one entry are separate records, joined by “and”; a condition that tells them apart may be missing. Equal values may be shown once. Bridge positions count the residues as written; N and C are the ends. Peptide text beside a SMILES is read from it.
# Tests used:
# ACA = experiment: Structure Activity Relationship of the Crossreactive ACA Epitope (relative activity); format: binding, human; details: LJP 688 = 100
# Source text: Peptide 6641/3G3 (LJP 688) was subjected to a number of analyses. The analyses included truncation at both the N-terminus and the C-terminus, disulfide substitution, substitution of alanine and glycine for amino acids in positions 2 through 8, substitution of branched aliphatic amino acids in positions 2, 4, 5 and 8, substitution of amino acids affecting conformation of the peptide, including substitution of α-methyl amino acids, substitution of basic amino acids in position 7, substitution of D-amino acids in positions 2 through 9, and the substitution of N-α-methyl amino acids in positions 1 through 9.
# ACA-6635 = experiment: Competitive binding peptide ACA ELISA, cardiolipin/β2-GPI-coated plates; design: species or system human; details: ACA serum 6635 RS
# ACA-6641 [1] = experiment: Phage-capture ELISA; format: binding, human; details: ACA-6641 screen
# Description: The phage-capture ELISA consists of the following steps. Microtitration wells are coated with aPL antibody and phage clones are added as in the micropanning assay. Unbound phage are washed away and the amount of bound phage is quantitated using an enzyme-conjugated goat antiserum which binds the major coat protein of the phage. Phage screened using phage-capture ELISA react with many aPL antibodies and provide a strong signal in subsequent ELISA assays. This intermediate level of sensitivity allows for greater efficiency in the peptide synthesis effort since few micropanning-positive phage are phage-capture ELISA positive. As a result, peptides synthesized from positive phage-capture ELISA phage are generally immunoreactive.
# AffACA-6641 was isolated from 4 mL of plasma taken from patient number 6641. AffACA-6641 (10 μg) was incubated with the pooled p-III phage libraries in a final volume of 100 μL as described previously. Following four rounds of biopanning, 45 clones from the 3rd and 4th rounds were tested by micropanning. Of the 45, 23 scored negative. The 3rd round phage yielded two clones that scored 4+, two that scored 3+ and two that scored 2+. From the 4th round, one clone scored 4+, one scored 3+ and three scored 2+. […] Four base DNA sequencing gave the following translated peptide sequence: […]
# ACA-6501 = experiment: Competitive binding peptide ACA ELISA, cardiolipin/β2-GPI-coated plates; design: species or system human
# How it was run: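 Monomeric peptides at several amounts were preincubated ~1 h at RT with ACA-6501 serum (final 1:400), then added to cardiolipin-coated, fish-gelatin-blocked plates with β2-GPI for 1 h at RT. Bound IgG was detected with alkaline phosphatase anti-human IgG and phenolphthalein monophosphate, read at 550 nm. IC50 was the peptide amount at half-maximal absorbance.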
# ACA-7005 = experiment: as above; design: species or system human
# Description: (§1) A variation of this assay uses microtitration plates coated with human β2-glycoprotein I/cardiolipin (β2-GPI/CL) instead of tetravalent peptide and tests the ability of monomeric peptides to block the binding of aPL antibody to the epitope(s) on β2-GPI/CL. In this assay, IgG-depleted human serum at an optimized concentration is used as a source of β2-GPI. The monomeric peptides at several concentrations are incubated with an optimized concentration of aPL antibody in a manner analogous to the assay which employs tetravalent peptide as a plate substrate. Following the incubation of aPL/peptide in (β2-GPI/CL) plates, antibody binding and the peptide concentration required for 50% inhibition is determined at half-maximal absorbance as in the tetravalent assay.
# (§2) Peptide sequences for all five peptides immediately follow the table. All were tested using the competitive binding peptide ACA ELISA using CL/β2-GPI plates as described herein.
# (§3) (B) Immulon I® 96-well, flat-bottom, polystyrene microtitration plates (Dynatech Laboratories, Inc., Chantilly, Va.) were coated with 30 μL/well of cardiolipin (CL, 50 μg; Sigma Chemical Co., St. Louis, Mo.) in ethanol. Two control wells received 30 μL ethanol only. After overnight evaporation at 4° C., each well was blocked with 200 μL of 5% (w/v) fish gelatin in PBS for 2 hours at RT.
# (§4) The CL/β2-GPI microtitration plate was washed 5 times with TBS and 100 μL aliquots in duplicate from Eppendorf tubes #1, 2, 3, and 4 containing the antibody-peptide (or no peptide mixtures) were added to the wells. A volume of 100 μL from tube #4 was added to the duplicate control wells containing no cardiolipin. The microtitration plate was incubated for 1 hour at RT with agitation at 40 rpm in an orbital shaker (American Scientific, Rotator V), washed 5 times with TBS and then 100 μL of 1:1000 goat anti-human IgG alkaline phosphatase conjugate (Zymed, Cat No. 62-8422) in 0.5% (w/v) BSA-TBS was added. Following incubation for 1 hour at RT, the microtitration plate was again washed 5 times with TBS and the colorimetric enzyme detection developed by adding 100 μL of PMPP solution (7.8 g phenolphthalein monophosphate plus 69.5 g of 2-amino-2-methyl-1-propanol in 100 mL water stock solution diluted 1:26 with water). After 21 minutes, the reaction was stopped by adding 50 μL of 0.2 M Na2HPO4 (Mallinckrodt) to each well. Absorbance at 550 nm was read in a microplate reader (Bio-Tek Instruments, Model EL 311). The amount of peptide that inhibited ACA-6501 binding by 50%, the IC50, was calculated from the graph at the intersection of half-maximal absorbance with amount of peptide added.
# ACA-6638 = experiment: as above; design: species or system human
# Description: as §1, §2, §3, §4
# ACA-6641 [2] = experiment: as above; design: species or system human
# Description: as §1, §2, §3, §4
# ACA-6903 = experiment: as above; design: species or system human
# Description: as §1, §2, §3, §4
# ACA-6644 = experiment: as above; design: species or system human
# Description: as §1, §2, §3, §4
# ACA-7004 = experiment: as above; design: species or system human
# Description: as §1, §2, §3, §4
# ACA-6701 = experiment: as above; design: species or system human
# Description: as §1, §2, §3, §4
# ACA-6626 = experiment: as above; design: species or system human
# Description: as §1, §2, §3, §4
# ACA antibodies = experiment: Competitive binding peptide ACA ELISA, cardiolipin/β2-GPI-coated plates, panel of ACA antibodies (average); design: species or system human
# Description: as §1, §2
# As noted in Section I above, one synthetic peptide, 6641/3G3 was tested against several high titer ACA antisera. This peptide appeared to be crossreactive with the vast majority of ACA antisera tested as illustrated in FIG. 14.
# as §3, §4
# [3] = peptide 1 mg/mL, affinity purified antibody
compound,measurement,setting,value
"CC(C)C[C@@H]1NC(=O)[C@@H](NC(=O)[C@@H]2CCCN2C(=O)CNC(=O)[C@H](C)N)CSSC[C@@H](C(=O)N2CCC[C@H]2C(=O)NCC(=O)O)NC(=O)[C@H](CC(C)C)NC(=O)[C@H](CCCCN)NC(=O)CNC(=O)[C@H](CC(C)C)NC(=O)[C@H](C(C)C)NC(=O)CNC1=O [LJP 688, AGP-CLGVLGKLC-PG] (H-AGPCLGVLGKLCPG-OH; disulfide 4-12)",Relative Activity,ACA,100
same,IC50 for peptide LJP 688,ACA-6635,1000 µg/mL
same,result in the phage-capture ELISA,ACA-6641 [1],strongly positive
same,IC50 for peptide LJP 688,"ACA-6501; ACA serum 6501 RS, RFL",890 µg/mL and 1100 µg/mL
same,with ACA 6501 150 ug/mL,"ACA-6501; Optimization of Peptide 3G3, inf = no 50% inhibition",850 µg/mL
same,"Percent Inhibition of AffACA by Peptide Monomers, 6501",ACA-6501; [3],86%
same,IC50 for peptide LJP 688,ACA-7005; ACA serum 7005 RFL,750 µg/mL
same,"Percent Inhibition of AffACA by Peptide Monomers, 7005",ACA-7005; [3],95%
same,IC50 for peptide LJP 688,ACA-6638; ACA serum 6638 RS,810 µg/mL
same,"Percent Inhibition of AffACA by Peptide Monomers, 6638",ACA-6638; [3],100%
same,IC50 for peptide LJP 688,ACA-6641 [2]; ACA serum 6641 RS,890 µg/mL and 510 µg/mL
same,"Percent Inhibition of AffACA by Peptide Monomers, 6641",ACA-6641 [2]; [3],93%
same,IC50 for peptide LJP 688,ACA-6903; ACA serum 6903 RS,800 µg/mL
same,"Percent Inhibition of AffACA by Peptide Monomers, 6903",ACA-6903; [3],100%
same,IC50 for peptide LJP 688,ACA-6644; ACA serum 6644 RS,760 µg/mL
same,"Percent Inhibition of AffACA by Peptide Monomers, 6644",ACA-6644; [3],100%
same,IC50 for peptide LJP 688,ACA-7004; ACA serum 7004 RFL,670 µg/mL
same,"Percent Inhibition of AffACA by Peptide Monomers, 7004",ACA-7004; [3],100%
same,IC50 for peptide LJP 688,ACA-6701; ACA serum 6701 RS,1070 µg/mL
same,"Percent Inhibition of AffACA by Peptide Monomers, 6701",ACA-6701; [3],100%
same,IC50 for peptide LJP 688,ACA-6626; ACA serum 6626 RS,1090 µg/mL
same,"Percent Inhibition of AffACA by Peptide Monomers, 6626",ACA-6626; [3],100%
same,"complete inhibition, cross-reactivity with 10 of 10 ACA antibodies",ACA antibodies; at 1.8 mg/mL,> 80%
same,"IC50 for peptide LJP 688, mean ± sd",ACA antibodies; mean over ten ACA sera,860 ± 160 µg/mL
same,"Percent Inhibition of AffACA by Peptide Monomers, Ave.","ACA antibodies; peptide 1 mg/mL, average over nine antibodies",97%
